Peptide text beside a SMILES is read from it.
Experiments:
SSPE Yamagata-1 strain [1] = test: Viral plaque reduction assay, SSPE virus in Vero cells; assay type: cell-based, SSPE virus (variant measles virus); settings: for inhibition of plaque formation compared with the control group, SSPE Yamagata-1 strain (peptide screening): peptide 10 μM, Vero cells and Vero/SLAM cells (Fig 2C), duplicate, at least twice independently; for EC50: plaque reduction, SSPE Yamagata-1 strain, mean ± SD; for EC50 / SI, SSPE virus (Vero cells): Vero cells; for SI, SSPE virus (Vero cells): selectivity index, ratio of CC50 relative to EC50
Description: (§1) African green monkey kidney (Vero) cells and Vero cells expressing human SLAM (Vero/SLAM cells) were used in all experiments. The growth medium for Vero cells comprised minimal essential medium (MEM) supplemented with 10% heat-inactivated newborn bovine serum, penicillin G (100 IU/ml), streptomycin (100 μg/ml), and L-glutamine (300 μg/ml). The same growth medium, which was further supplemented with G418 (400 μg/ml), was used for Vero/SLAM cells. Cells were seeded into the wells (22 mm) of 12-well tissue culture plates at 1 × 10^5 cells/well and incubated at 37°C in a 10% CO2 incubator for 3 days, at which time they had just reached confluence. The virus strains used were human MV Edmonston strain and SSPE Yamagata-1 [34], which was originally isolated from the brain of an SSPE patient. The Edmonston strain of MV was used to inoculate Vero/SLAM cells and harvested after freeze–thawing infected cells. The SSPE Yamagata-1 strain was cultured in Vero/SLAM cells, harvested by trypsinization, prepared as an infected cell suspension in the Vero/SLAM cell medium supplemented with 10% dimethyl sulfoxide, and stored at −80°C until use.
(§2) Screening was performed to evaluate the antiviral effects of each synthetic peptide against the MV and SSPE viruses using the viral plaque reduction assay. Based on the results of the peptide screening, the 50% effective concentration (EC50), i.e., the concentration of compounds required to inhibit virus plaque formation by 50%, was also determined. The Human MV Edmonston strain was used to produce cell-free virions, which yielded a reproducible number of syncytia [generally 200–300 plaque-forming units (PFUs)] in the control wells. The SSPE virus was also used to yield a reproducible number of syncytia (generally 70–150 PFU) in control wells. In the peptide screening assay, each synthetic peptide was used at a concentration of 10 μM. IFN-α and enfuvirtide, a peptide fusion inhibitor of HIV-1, were used as controls at a concentration of 250 IU/ml and 10 μM, respectively.

SSPE Yamagata-1 strain [2] = test: Viral plaque reduction assay, SSPE virus in Vero/SLAM cells; assay type: cell-based, SSPE virus (variant measles virus); settings: for EC50: plaque reduction, SSPE Yamagata-1 strain, mean ± SD; for SI, SSPE virus (Vero/SLAM cells): selectivity index, ratio of CC50 relative to EC50
Description: as §1, §2

MV Edmonston strain = test: Viral plaque reduction assay, measles virus in Vero cells; assay type: cell-based; settings: for EC50: plaque reduction, MV Edmonston strain, mean ± SD; for EC50 / SI, measles virus (Vero cells): Vero cells; for SI, measles virus (Vero cells): selectivity index, ratio of CC50 relative to EC50
Description: as §1, §2

SSPE virus = test: Time-of-addition experiments, SSPE virus in Vero cells; assay type: cell-based, SSPE virus (variant measles virus)
Description: Synthetic peptides, M1 and M2EK (10 μM each) were used in time-of-addition experiments. Each peptide was added to Vero cells at three distinct time points: prior to infection (pretreatment with the compound), at the same time as the virus infection (simultaneous infection), or post-infection (post-entry). The SSPE virus was prepared to yield a reproducible number of syncytia in untreated control wells (approximately 50–100/well). In the pretreatment assay, peptide was added to confluent cells and incubated at 37°C for 30 min, and the cell cultures were washed with MEM before viral inoculation. Cells were then challenged with the SSPE virus at 0°C for 30 min. In the simultaneous infection assay, SSPE virus with peptide was inoculated at 0°C for 30 min. After the adsorption, the cell cultures were subsequently washed with MEM, and growth medium containing 0.75% methylcellulose was overlaid on the cell cultures, followed by incubation for 3 days in both pretreatment and simultaneous infection assays. In the post-entry assay, cells were challenged with the SSPE virus at 0°C for 30 min. After adsorption, the cell cultures were subsequently washed with MEM and peptide, which was prepared in growth medium containing 0.75% methylcellulose, was subsequently overlaid on the cell cultures at distinct time points. The starting point when cells were incubated at 0°C for 30 min was defined as t0.

[3] = In vivo toxicity, mice administered peptides alone; parameters: species or system BALB/cAJcl-nu/nu mice; settings: peptide 100 μM intracranial, no virus infection
Description: Based on a previous report, but with slight modifications, 3-week-old female BALB/cAJcl-nu/nu mice (CLEA Japan Inc., Tokyo, Japan) were used in the animal experiments. Mice were divided in four groups (n = 6 for each cage) and housed with free access to both water and food and monitored daily. The mice were SSPE virus-infected or mock-infected (MEM alone) intracranially. An SSPE virus-infected cell suspension containing 250 PFU/ 30 μl (100% lethal dose) was inoculated into the subarachnoid space of nude mice using a 27-gauge double needle at a depth of 2 mm. Each compound was prepared at a concentration of 100 μM and was injected intracranially at 0 (mixed with viruses), 6, and 24 h after the initial virus inoculation. All injections were performed under inhalational anesthesia with isoflurane. Each mouse was checked for neurological symptoms and weighed daily. The ethical endpoint was defined as <75% of their maximum weight because most mice would die within 24 h. On attaining this endpoint, the mice were sacrificed by cervical dislocation under inhalational anesthesia with isoflurane. In this experiment, five mice died of natural causes before the ethical endpoint; however, all mice had neurological symptoms and 9.5%, 13.2%,14.5%, 15.8%, 16.4% weight loss (one each) relative to their maximum weight. This study was approved by the control of the Animal Research Committee in accordance with the Guidelines on Animal Experiments in Fukushima Medical University and the Rules for the Protection and Care of Animals (approval number: 23038).

Vero/SLAM cells = test: Methyl tetrazolium cytotoxicity assay, Vero/SLAM cells; assay type: cell-based, African green monkey; settings: confluent Vero/SLAM cells, 24 h, 37°C
Description: (§3) Peptide cytotoxicity was determined using the methyl tetrazolium assay. Five-fold serial dilutions of peptides were added to confluent Vero or Vero/SLAM cells. Cells were then incubated at 37°C for 24 h, and the number of viable cells was determined using 3-(4,5-dimethyllthiazol-2-yl)-2,5-diphenylterazolium bromide (Sigma–Aldrich, Tokyo, Japan). The 50% cytotoxic concentration (CC50), which was defined as the concentration required to reduce the cell viability by 50% relative to that of untreated controls, was determined. The selectivity index (SI) was defined as the ratio of the CC50 relative to the EC50 value.

Vero cells = test: Methyl tetrazolium cytotoxicity assay, Vero cells; assay type: cell-based, African green monkey; settings: confluent Vero cells, 24 h, 37°C
Description: as §3

Row | Compound | inhibition of plaque formation compared with the control group, SSPE Yamagata-1 strain (peptide screening) (SSPE Yamagata-1 strain [1]) | EC50 (SSPE Yamagata-1 strain [1]) [nM] | EC50 (SSPE Yamagata-1 strain [2]) [nM] | EC50 (MV Edmonston strain) [nM] | SI, measles virus (Vero cells) (MV Edmonston strain) | viral inhibitory effect, peptide added post-infection (post-entry) (SSPE virus; peptide 10 μM overlaid at distinct time points after adsorption) | viral plaque numbers, peptide added before viral adsorption or at the same time as virus inoculation (SSPE virus; peptide 10 μM, pretreatment 37°C 30 min or simultaneous with SSPE virus 0°C 30 min, compared with control) | SI, SSPE virus (Vero cells) (SSPE Yamagata-1 strain [1]) | survival of mice administered with peptides alone, with no symptoms [3] [days] | SI, SSPE virus (Vero/SLAM cells) (SSPE Yamagata-1 strain [2]) | CC50, SSPE virus (Vero/SLAM cells) (Vero/SLAM cells) [nM] | CC50, SSPE virus (Vero cells) (Vero cells) [nM] | CC50, measles virus (Vero cells) (Vero cells) [nM] | inhibition of MV Edmonston plaque formation compared with the control group (peptide screening) (MV Edmonston strain; peptide 10 μM (Fig 2C), duplicate, at least twice independently)
1 | CC[C@H](C)[C@H](NC(C)=O)C(=O)N[C@@H](CCC(=O)O)C(=O)N[C@@H](CCC(=O)O)C(=O)N[C@@H](CCC(=O)O)C(=O)N[C@@H](CCCNC(=N)N)C(=O)N[C@@H](CCCCN)C(=O)N[C@@H](CCCCN)C(=O)N[C@H](C(=O)N[C@@H](CCC(=O)O)C(=O)N[C@@H](CCC(=O)O)C(=O)N[C@@H](CC(N)=O)C(=O)N[C@@H](CC(C)C)C(=O)N[C@@H](CCCCN)C(=O)N[C@@H](CCCCN)C(=O)N[C@@H](C)C(=O)N[C@@H](CCC(=O)O)C(=O)N[C@@H](CCC(=O)O)C(=O)N[C@@H](CCCCN)C(=O)N[C@@H](CC(C)C)C(=O)N[C@@H](CCCCN)C(=O)N[C@@H](CCCCN)C(=O)N[C@@H](C)C(=O)N[C@@H](CCC(=O)O)C(=O)N[C@@H](CCC(=O)O)C(=O)N[C@@H](CC(C)C)C(=O)N[C@@H](CC(C)C)C(=O)N[C@@H](CCCCN)C(=O)N[C@@H](CCCCN)C(=O)N[C@@H](CO)C(=O)N[C@@H](CCC(=O)O)C(=O)N[C@@H](CCC(=O)O)C(=O)N[C@H](C(=O)N[C@@H](CC(C)C)C(=O)N[C@@H](CCCCN)C(=O)N[C@@H](CCCCN)C(N)=O)[C@@H](C)CC)C(C)C [Peptide M1EK] (Ac-IEEERKKVEENLKKAEEKLKKAEELLKKSEEILKK-NH2) | > 97% | 120 ± 50 | 170 ± 20 |  |  |  |  |  |  |  |  |  |  | 
2 | CC[C@H](C)[C@H](NC(C)=O)C(=O)N[C@@H](CO)C(=O)N[C@@H](CC(C)C)C(=O)N[C@@H](CCC(=O)O)C(=O)N[C@@H](CCCNC(=N)N)C(=O)N[C@@H](CC(C)C)C(=O)N[C@@H](CC(=O)O)C(=O)N[C@H](C(=O)NCC(=O)N[C@H](C(=O)N[C@@H](CC(N)=O)C(=O)N[C@@H](CC(C)C)C(=O)NCC(=O)N[C@@H](CC(N)=O)C(=O)N[C@@H](C)C(=O)N[C@H](C(=O)N[C@@H](C)C(=O)N[C@@H](CCCCN)C(=O)N[C@@H](CC(C)C)C(=O)N[C@@H](CCC(=O)O)C(=O)N[C@@H](CC(=O)O)C(=O)N[C@@H](C)C(=O)N[C@@H](CCCCN)C(=O)N[C@@H](CCC(=O)O)C(=O)N[C@@H](CC(C)C)C(=O)N[C@@H](CC(C)C)C(=O)N[C@@H](CCC(=O)O)C(=O)N[C@@H](CO)C(=O)N[C@@H](CO)C(=O)N[C@@H](CC(=O)O)C(=O)N[C@@H](CCC(N)=O)C(=O)N[C@H](C(=O)N[C@@H](CC(C)C)C(=O)N[C@@H](CCCNC(=N)N)C(=O)N[C@@H](CO)C(N)=O)[C@@H](C)CC)[C@@H](C)CC)[C@@H](C)O)C(C)C [Peptide M1] | > 97% | 10 ± 10 | 10 ± 10 | 30 ± 10 | >3663 | observed in a time-dependent manner, particularly within 24 h | no reduction in viral plaque numbers | >7519 | > 45 | >9524 |  |  |  | 
3 | CC[C@H](C)[C@H](NC(=O)[C@H](C)NC(=O)[C@H](CC(N)=O)NC(=O)CNC(=O)[C@H](CC(C)C)NC(=O)[C@H](CC(N)=O)NC(=O)[C@@H](NC(=O)CNC(=O)[C@@H](NC(C)=O)C(C)C)[C@@H](C)O)C(=O)N[C@@H](C)C(=O)N[C@@H](CCCCN)C(=O)N[C@@H](CC(C)C)C(=O)N[C@@H](CCC(=O)O)C(=O)N[C@@H](CC(=O)O)C(=O)N[C@@H](C)C(=O)N[C@@H](CCCCN)C(=O)N[C@@H](CCC(=O)O)C(=O)N[C@@H](CC(C)C)C(=O)N[C@@H](CC(C)C)C(=O)N[C@@H](CCC(=O)O)C(=O)N[C@@H](CO)C(=O)N[C@@H](CO)C(=O)N[C@@H](CC(=O)O)C(=O)N[C@@H](CCC(N)=O)C(=O)N[C@H](C(=O)N[C@@H](CC(C)C)C(=O)N[C@@H](CCCNC(=N)N)C(=O)N[C@@H](CO)C(=O)N[C@@H](CCSC)C(=O)N[C@@H](CCCCN)C(=O)NCC(=O)N[C@@H](CC(C)C)C(=O)N[C@@H](CO)C(=O)N[C@@H](CO)C(=O)N[C@H](C(N)=O)[C@@H](C)O)[C@@H](C)CC [Peptide M2] |  | 260 ± 170 | 480 ± 220 | 120 ± 40 | >805 |  |  | >377 |  | >209 | >100000 | >100000 | >100000 | 
4 | Enfuvirtide | lower antiviral activity | > 10000 | > 10000 | > 10000 |  |  |  |  |  |  |  |  |  | lower antiviral activity
5 | enfuvirtide |  |  |  |  |  |  |  |  | > 45 |  | >100000 | >100000 | >100000 | 

— paper PMC5017735, “A Novel Peptide Derived from the Fusion Protein Heptad Repeat Inhibits Replication of Subacute Sclerosing Panencephalitis Virus In Vitro and In Vivo” (PLoS ONE, 2016)
